According to patent publication US7413851B2, “Nucleophosmin directed diagnostics and therapeutics for multidrug resistant neoplastic disease” (Aurelium Biopharma, Inc., priority 2002, dated 2008):

Columns and labels:
E3 target cells = conditions: cited from earlier work
[1] = anti-CD19 antibody immunoconjugate vs free Ida; read-out: activities; cited from earlier work
[2] = tested on: hematological tumor cells; test: Nucleophosmin vaccination before injection of hematological tumor cells; assay type: in vivo; conditions: mice vaccinated prior to injection of tumor cells vs not vaccinated
NB4 cell line = test: Cytotoxicity of Ara-C, MTT staining of viable cells; assay type: cell-based; conditions: 0 to 1 mM, 72 hours
Procedure: The cytotoxicity of cytosine-β-D-arabinoside (Ara-C) against CEM, HL60 and NB4 cell lines was examined. Cells were seeded in 96 well plates at 1.5×10^4 cells/well in RPMI1640, 10% FBS, 1 mM HEPES or α-MEM, 10% FBS for HL60 and NB4 or CEM, respectively, with varying concentrations of Ara-C (0 to 1 mM). Cytotoxicity was assessed after 72 hours by staining the viable cells with MTT.

[3] = tested on: antigen-positive E3 cell line; conditions: cited from earlier work

Molecule: CC(=O)[C@]1(O)Cc2c(O)c3c(c(O)c2[C@@H](O[C@H]2C[C@H](N)[C@H](O)[C@H](C)O2)C1)C(=O)c1ccccc1C3=O [Ida, Idarubicin]
- IC50 (E3 target cells): 120 nM
- IC50 [1]: 12 nM

Molecule: nucleophosmin: purified full length murine nucleophosmin protein used as vaccine antigen, optionally with adjuvant
- tumor size [2]: smaller

Molecule: Nc1ccn([C@@H]2O[C@H](CO)[C@@H](O)[C@@H]2O)c(=O)n1 [Ara-C, cytosine-β-D-arabinoside]
- cytotoxicity against NB4 (FIG. 14) (NB4 cell line): resistance

Molecule: O=c1[nH]c(=O)n([C@H]2C[C@H](O)[C@@H](CO)O2)cc1F [FUDR, 5-fluoro-2′-deoxyuridine]
- IC50 [3]: 0.4 nM
